Source: patent US7678799B2 (Teva Pharmaceutical Industries Ltd., priority 2003, dated 2010)
Counter-ions that a name gives are not always drawn.

Tests used:
[1] = Specific surface area measurement (BET, Coulter SA3100); assay type: physicochemical; details: for Specific surface area: BET
From the text: Preferably, the SSA is about 5 to about 20 m^2/g.
Specific surface area measurement: • Instrument: Coulter SA3100 • Degassing: without • Sensitivity: high • Calculation: BET • Type: multipoint • Points: 10 • Sample cell: 9 and 12cm^3

[2] = Equilibration of ziprasidone HCl form E at different relative humidities for 22 days (TGA, XRD); assay type: physicochemical; details: for TGA weight loss (water uptake) / Crystal form: 22 days
Experimental: The slurry temperature is preferably at least about 40° C. when using THF.
(§1) X-Ray powder diffraction data were obtained using by method known in the art using a SCINTAG powder X-Ray diffractometer model X'TRA equipped with a solid state detector. Copper radiation of 1.5418 Å was used. A round aluminum sample holder with round zero background quartz plate, with cavity of 25(diameter)*0.5(dept) mm. Detection limit: 5%.
TGA analysis was done using a Mettler M3 meter. The weight of the samples was about 10 mg; the samples were scanned at a rate of 10° C./min from 25° C. to 200° C. The oven was constantly purged with nitrogen gas at a flow rate of 40 ml/min. Standard 70 μl alumina crucibles covered by lids with 1 hole were used.

[3] = Storage at 0% relative humidity, crystal form by XRD; assay type: physicochemical; details: for transformed into Form M upon exposure to 0% relative humidity: 0% humidity, prolonged periods (such as 3 weeks)
From the text: (§2) In addition, no more than 5% of Form A transforms into Form M during heating and also during exposure to 0% relative humidity.
(§3) Ziprasidone HCl Form M, however, converts to the anhydrous form under heating (see table 1 and FIG. 8) or exposure to 0% relative humidity (see table 6 and FIG. 10).
(§4) This crystalline form may be sesquihydrate.
as §1

[4] = Heating of crystalline ziprasidone HCl forms, crystal form by XRD; assay type: physicochemical; details: for Crystal form after heating at 80-105° C. overnight: HCl
From the text: as §2, §1

[5] = Storage stability at 25, 40 and 55° C., crystal form by XRD; assay type: physicochemical
From the text: as §3, §4, §1

[6] = Slurry of Form A in water or ethanol, transformation to Form M; assay type: physicochemical
[7] = cited from earlier work

SMILES: O=C1Cc2cc(CCN3CCN(c4nsc5ccccc45)CC3)c(Cl)cc2N1 [Example 19, ziprasidone HCl]
- Specific surface area ([1]; cell volume = 9 cm^3, HCl): 11.335 m^2/g
- Specific surface area ([1]; cell volume = 9 cm^3, listed as Sample prepared according to example 19, HCl): 11.335 m^2/g

SMILES: O=C1Cc2cc(CCN3CCN(c4nsc5ccccc45)CC3)c(Cl)cc2N1 [Repetition of U.S. Pat. No. 5,312,925 Example 2] [ziprasidone HCl, reference compound]
- Specific surface area ([1]; cell volume = 9 cm^3, HCl): 3.909 m^2/g

SMILES: O=C1Cc2cc(CCN3CCN(c4nsc5ccccc45)CC3)c(Cl)cc2N1 [Form E, ziprasidone HCl]
- TGA weight loss (water uptake) ([2]; RH 0%): 5.3%
- TGA weight loss (water uptake) ([2]; RH 20%): 7.2%
- TGA weight loss (water uptake) ([2]; RH 40%): 4.8%
- TGA weight loss (water uptake) ([2]; RH 60%): 5.0%
- Crystal form ([2]; RH 80%): M + A
- TGA weight loss (water uptake) ([2]; RH 80%): 9.2%
- Crystal form ([2]; RH 100%): M + A + amorphous
- crystal form after exposure to relative humidity ([2]; relative humidity of about 20% to about 60% for about 22 days): Form A

SMILES: O=C1Cc2cc(CCN3CCN(c4nsc5ccccc45)CC3)c(Cl)cc2N1 [Form A, ziprasidone HCl]
- specific surface area (SSA) ([1]; as measured by BET, general statement): higher than 4 m^2/g
- transformed into Form M upon exposure to 0% relative humidity ([3]; HCl): no more than 5%
- Crystal form upon storage at 0% relative humidity ([3]; HCl): Form A
- temperature of heating without a change in the crystal structure [4]: up to 140 °C
- Crystal form after heating at 80-105° C. overnight [4]: Form A
- Form A transformed into Form M during heating ([4]; heating): no more than 5%
- transformed into Form M upon storage under accelerated aging conditions ([5]; 40° C., 75% RH, at least about 6 months): no more than 5%
- transforms to Form M ([6]; ethanol slurry): 95%
- Form A transformed into Form M ([6]; slurried in water): no more than 5%

SMILES: O=C1Cc2cc(CCN3CCN(c4nsc5ccccc45)CC3)c(Cl)cc2N1 [Example 17, ziprasidone HCl]
- Specific surface area ([1]; cell volume = 12 cm^3, HCl): 14.646 m^2/g
- Specific surface area ([1]; cell volume = 12 cm^3, listed as Sample prepared according to example 17, HCl): 14.646 m^2/g

SMILES: O=C1Cc2cc(CCN3CCN(c4nsc5ccccc45)CC3)c(Cl)cc2N1 [Example 15, ziprasidone HCl, reference compound]
- Specific surface area ([1]; cell volume = 9 cm^3, HCl): 3.908 m^2/g
- Specific surface area ([1]; cell volume = 9 cm^3, listed as Repetition of U.S. Pat. No. 6,150,366 procedure (comparative example 15), HCl): 3.908 m^2/g

SMILES: O=C1Cc2cc(CCN3CCN(c4nsc5ccccc45)CC3)c(Cl)cc2N1 [Form M, ziprasidone HCl, reference compound]
- Crystal form upon storage at 0% relative humidity ([3]; HCl): Anhydrous
- Crystal form after heating at 80-105° C. overnight [4]: Anhydrous

SMILES: O=C1Cc2cc(CCN3CCN(c4nsc5ccccc45)CC3)c(Cl)cc2N1 [Example 16, ziprasidone HCl]
- Specific surface area ([1]; cell volume = 9 cm^3, HCl): 5.461 m^2/g
- Specific surface area ([1]; cell volume = 9 cm^3, listed as Sample prepared according to example 16, HCl): 5.461 m^2/g

SMILES: O=C1Cc2cc(CCN3CCN(c4nsc5ccccc45)CC3)c(Cl)cc2N1 [Crystalline ziprasidone HCl having a water content of 4.6-6.]
- transformed into Form M upon exposure to 0% relative humidity ([3]; listed as solid crystalline ziprasidone HCl having a water content of about 4.6% to about ): No more than 5%
- transforms into Form M upon storage ([5]; 25, 40 and 55° C. for at least 3 months): No more than 5%

SMILES: O=C1Cc2cc(CCN3CCN(c4nsc5ccccc45)CC3)c(Cl)cc2N1 [Example 18, ziprasidone HCl]
- Specific surface area ([1]; cell volume = 12 cm^3, HCl): 18.831 m^2/g
- Specific surface area ([1]; cell volume = 12 cm^3, listed as Sample prepared according to example 18, HCl): 18.831 m^2/g

SMILES: O=C1Cc2cc(CCN3CCN(c4nsc5ccccc45)CC3)c(Cl)cc2N1 [Ziprasidone HCl]
- solubility in water [7]: 0.08 mg/mL

SMILES: O=C1Cc2cc(CCN3CCN(c4nsc5ccccc45)CC3)c(Cl)cc2N1 [Repetition of U.S. Pat. No. 6,150,366 Example 10] [ziprasidone HCl, reference compound]
- Specific surface area ([1]; cell volume = 9 cm^3, HCl): 2.135 m^2/g
